Results from patent US20110152166A1, “METHOD OF MODULATION OF PROTEIN PHOSPHORYLATION-DEPENDENT CONFORMATIONAL TRANSITIONS WITH LOW MOLECULAR WEIGHT COMPOUNDS” (priority 2006, published 2011).

Assays:
GST-S6K11-365 = test: Surface plasmon resonance, S6K1 binding to tail peptides; design: species or system rat; settings: K144N versus wt
Method: FIG. 13. The tail phosphate synergistically enhances the ability of the HM phosphate to activate S6K, dependent on the tail phosphate-binding site. (A) The kinase activity of purified kinase domain of S6K1 (S6K11-364), pre-phosphorylated by PDK1 in the activation loop, was determined in the presence of increasing concentrations of synthetic S6K1 tail peptide (residues 366-395) that was either non-phosphorylated (S371/T389), phosphorylated at Ser371 (pS371/T389) or Thr389 (5371/pT389) or phosphorylated at both sites (pS371/pT389). (B) The kinase activity of S6K11-364 and S6K11-364K144N, either pre-phosphorylated or not by PDK1, was determined in the absence or presence of 90 μM S371/pT389 or pS371/pT389. (C) pS371/pT389 S6K1 tail peptide was biotinylated and used to coat streptavidin Sensor Chips. The chips were thereafter analyzed for binding to purified GST-S6K11-365 or GST-56K11-365K144N. (A-C) Experiments were repeated at least 3 times and activity data (expressed as percent) are means±SD.
Sixty 146 cm^2 dishes with COST cells were co-transfected with pEBG-2T-S6K1-365 and pCMV5-myc-PDK1 (ratio 3:1) using calcium phosphate precipitation or with pEBG-2T-PKCζ and pCMV5-myc-PDK1 (ratio 3:1) using Fugene HD according to the manufacturers Instructions. Two days after transfection, the cells were harvested in lysis buffer as described above. […]

[1] = biological target: T1, Thr221-phosphorylated S6K11-364 (Rattus norvegicus, UniProt P67999); test: S6K1 in vitro reconstitution kinase assay with tail peptides; assay type: biochemical
T1 construct: Purified HA-S6K1-364 was incubated with synthetic S6K1 (rat) tail peptides; made in house; host or cells: COS7, co-transfected with myc-PDK1; anti-HA immunoprecipitate
T1 sequence (P67999 24-387): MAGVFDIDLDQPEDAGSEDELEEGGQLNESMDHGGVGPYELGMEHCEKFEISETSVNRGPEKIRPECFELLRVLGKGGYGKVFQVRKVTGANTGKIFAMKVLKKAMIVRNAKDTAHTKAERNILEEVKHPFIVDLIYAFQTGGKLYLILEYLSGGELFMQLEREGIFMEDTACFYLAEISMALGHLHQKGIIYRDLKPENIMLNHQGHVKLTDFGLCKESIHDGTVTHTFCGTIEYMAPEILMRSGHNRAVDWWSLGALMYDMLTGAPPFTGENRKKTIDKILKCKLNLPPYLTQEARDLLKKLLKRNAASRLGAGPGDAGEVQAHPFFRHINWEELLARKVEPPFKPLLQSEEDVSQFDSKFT
From the text: We established an in vitro reconstitution assay that could test a direct activation of the AGC kinase domain by the tail phosphate and characterize its cooperation with the HM and activation loop phosphates. The deletion mutant S6K11-364, which contains the kinase domain, but lacks the region of the tail containing the tail site and the HM as well as the C-terminal autoinhibitory domain, was expressed and purified from COS7 cells, either non-phosphorylated or phosphorylated at T221 in the activation loop, achieved by co-expression with PDK1. Purified S6K11-364 was then incubated with synthetic peptides of the S6K1 tail (residues 366-395: QTPVDS^371PDDSTLSESANQVFLGFT^389YVAPSV), which were either non-phosphorylated (S371/T389), phosphorylated at the tail site (pS371/T389), phosphorylated in the HM (S371/pT389) or phosphorylated at both sites (pS371/pT389). Subsequently, the kinase activity of S6K11-364 was determined.
Kinase assays for PKB, RSK, S6K, MSK were done as described previously (Frodin et al., 2002). […] After washing with 150 mM orthophosphoric acid, [^32P]phosphate incorporated into peptide substrate was quantified in an FLA-3000 apparatus (Fujifilm). […]

With “pS371/T389: synthetic S6K1 tail peptide (residues 366-395) phosphorylated at the tail site” the “decrease of binding of S6K11-365 to peptide by the K144N mutation” value (GST-S6K11-365) was “about 40%” and the “stimulation of kinase activity (in words)” value [1] was “did not stimulate”.
